Measured values reported in patent US8735425B2, “Tetrahydroisoquinoline derivative” (Daiichi Sankyo Company, Limited, priority 2008, dated 2014).

target: T1, DGAT1 enzyme (Homo sapiens, UniProt O75907); experiment: DGAT1 inhibitory activity test; assay type: biochemical; settings: test compound concentration of 0.05 μg/ml; read-out: Inhibitory Rate
T1 construct: made in house
T1 sequence (O75907 1-488): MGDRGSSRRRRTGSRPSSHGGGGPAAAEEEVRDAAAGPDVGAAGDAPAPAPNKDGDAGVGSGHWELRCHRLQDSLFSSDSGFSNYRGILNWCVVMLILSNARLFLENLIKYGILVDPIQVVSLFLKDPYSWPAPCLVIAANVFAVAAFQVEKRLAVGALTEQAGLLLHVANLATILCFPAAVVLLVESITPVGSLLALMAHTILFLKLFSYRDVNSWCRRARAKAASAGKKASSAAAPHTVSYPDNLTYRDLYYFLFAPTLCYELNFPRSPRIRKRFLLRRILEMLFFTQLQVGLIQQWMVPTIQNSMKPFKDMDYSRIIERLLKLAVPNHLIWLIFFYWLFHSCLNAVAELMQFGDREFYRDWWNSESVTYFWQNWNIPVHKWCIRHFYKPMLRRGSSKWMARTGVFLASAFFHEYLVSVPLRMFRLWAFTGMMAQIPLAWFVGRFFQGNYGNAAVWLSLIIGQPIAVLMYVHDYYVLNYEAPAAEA
Description: DGAT1 enzyme was prepared and stored according to the method described in US2007/0249620.
(2) DGAT1 Inhibitory Activity Test
A reaction solution having the following composition was incubated at room temperature (23° C.) for 30 minutes: 175 mM Tris-HCl (pH 8.0), 8 mM MgCl2, 1 mg/ml BSA, 0.3 mM 1,2-dioleoyl-sn-glycerol (10-fold concentration of EtOH solution, 10% added), 10 μM [^14C]-oleoyl-CoA (approximately 50 mCi/mmol), 0.5% Triton X-100, the DGAT1 enzyme (10 μg) obtained in Test Example 1(1), and a test compound or vehicle (DMSO/MeOH, 7:3 solution, 5% added), […] in total. A reaction stop solution ([…] consisting of isopropanol/1-heptane/water (80:20:2, v/v/v) was added to the reaction solution and stirred. Subsequently, water (30 μl) and 1-heptane (100 μl) were added thereto and stirred. The 1-heptane layer (50 μl) was spotted onto a TLC plate and developed with a developing solvent consisting of 1-hexane/diethyl ether/acetic acid (85:15:1, v/v/v). The radioactivity of the triglyceride fraction was quantified using BAS2000 Bio Image Analyzer (FUJIFILM) and compared with the control. The inhibitory activity of the test compound was calculated according to the formula shown below. In this context, the radioactivity at no reaction (0 minute incubation) was used as background. Inhibitory Rate=100−[(Radioactivity of sample supplemented with test compound)−(Background)]/[(Radioactivity of control)−(Background)]×100

Inhibition at 0.05 µg/mL, ≥ 50%:
O=C(O)C[C@H]1CC[C@@H](OC(=O)N2CCc3cc(NC(=O)Nc4ccccc4F)ccc3C2)CC1 [Example 3, cis-6-[3-(2-fluoro-phenyl)-ureido]-3,4-dihydro-1H-isoquinoline-2-carboxylic acid 4-carboxymethyl-cyclohexyl ester]
O=C(O)C[C@H]1CC[C@H](OC(=O)N2CCc3cc(NC(=O)Nc4cnccn4)ccc3C2)CC1 [Example 94, trans-6-(3-pyrazin-2-yl-ureido)-3,4-dihydro-1H-isoquinoline-2-carboxylic acid 4-carboxymethyl-cyclohexyl ester]
O=C(O)C[C@H]1CC[C@H](OC(=O)N2CCc3cc(NC(=O)Nc4cncc(Cl)c4)ccc3C2)CC1 [Example 93, trans-6-[3-(5-chloro-pyridin-3-yl)-ureido]-3,4-dihydro-1H-isoquinoline-2-carboxylic acid 4-carboxymethyl-cyclohexyl ester]
O=C(Nc1ccc2c(c1)CCN(C(=O)O[C@H]1CC[C@H](Cc3nc(C(=O)O)co3)CC1)C2)Nc1ccccc1F [Example 39, trans-6-[3-(2-fluoro-phenyl)-ureido]-3,4-dihydro-1H-isoquinoline-2-carboxylic acid 4-(4-carboxy-oxazol-2-ylmethyl)-cyclohexyl ester]
NC(=O)C[C@H]1CC[C@H](OC(=O)N2CCc3cc(NC(=O)Nc4ccccc4F)ccc3C2)CC1 [Example 18, trans-6-[3-(2-fluoro-phenyl)-ureido]-3,4-dihydro-1H-isoquinoline-2-carboxylic acid 4-carbamoylmethyl-cyclohexyl ester]
O=C(O)CNC(=O)C[C@H]1CC[C@H](OC(=O)N2CCc3cc(NC(=O)Nc4ccccc4F)ccc3C2)CC1 [Example 35, trans-6-[3-(2-fluoro-phenyl)-ureido]-3,4-dihydro-1H-isoquinoline-2-carboxylic acid 4-[(carboxymethyl-carbamoyl)-methyl]-cyclohexyl ester]
O=C(C[C@H]1CC[C@H](OC(=O)N2CCc3cc(NC(=O)Nc4ccccc4F)ccc3C2)CC1)Nc1nnn[nH]1 [Example 40, trans-6-[3-(2-fluoro-phenyl)-ureido]-3,4-dihydro-1H-isoquinoline-2-carboxylic acid 4-[(1H-tetrazol-5-ylcarbamoyl)-methyl]-cyclohexyl ester]
CNC(=O)C[C@H]1CC[C@H](OC(=O)N2CCc3cc(NC(=O)Nc4ccccc4F)ccc3C2)CC1 [Example 34, trans-6-[3-(2-fluoro-phenyl)-ureido]-3,4-dihydro-1H-isoquinoline-2-carboxylic acid 4-methylcarbamoylmethyl-cyclohexyl ester]
CC(C)(NC(=O)C[C@H]1CC[C@H](OC(=O)N2CCc3cc(NC(=O)Nc4ccccc4F)ccc3C2)CC1)C(=O)O [Example 19, trans-6-[3-(2-fluoro-phenyl)-ureido]-3,4-dihydro-1H-isoquinoline-2-carboxylic acid 4-[(1-carboxy-1-methyl-1-ethylcarbamoyl)-methyl]-cyclohexyl ester]
COc1ccc(NC(=O)Nc2ccc3c(c2)CCN(C(=O)O[C@H]2CC[C@H](CC(=O)O)CC2)C3)cc1 [Example 79, trans-6-[3-(4-methoxy-phenyl)-ureido]-3,4-dihydro-1H-isoquinoline-2-carboxylic acid 4-carboxymethyl-cyclohexyl ester]
COc1cccc(NC(=O)Nc2ccc3c(c2)CCN(C(=O)C(C)C2CCC(CC(=O)O)CC2)C3)c1 (centres unmarked) [Example 106, [4-(2-{6-[3-(3-methoxy-phenyl)-ureido]-3,4-dihydro-1H-isoquinolin-2-yl}-1-methyl-2-oxy-ethyl)-cyclohexyl]-acetic acid]
C[S+]([O-])c1cccc(NC(=O)Nc2ccc3c(c2)CCN(C(=O)O[C@H]2CC[C@H](CC(=O)O)CC2)C3)c1 (stereo partly drawn) [Example 65, trans-6-[3-(3-methanesulfinyl-phenyl)-ureido]-3,4-dihydro-1H-isoquinoline-2-carboxylic acid 4-carboxymethyl-cyclohexyl ester]
CN(C)C(=O)C[C@H]1CC[C@H](OC(=O)N2CCc3cc(NC(=O)Nc4ccccc4F)ccc3C2)CC1 [Example 33, trans-6-[3-(2-fluoro-phenyl)-ureido]-3,4-dihydro-1H-isoquinoline-2-carboxylic acid 4-dimethylcarbamoylmethyl-cyclohexyl ester]
O=C(O)C[C@H]1CC[C@H](OC(=O)N2CCc3cc(Nc4nc5ccccc5s4)ccc3C2)CC1 [Example 98, trans-6-(benzothiazol-2-ylamino)-3,4-dihydro-1H-isoquinoline-2-carboxylic acid 4-carboxymethyl-cyclohexyl ester]
O=C(Nc1ccc2c(c1)CCN(C(=O)O[C@H]1CC[C@@H](C(=O)O)CC1)C2)Nc1ccccc1F [Example 9, cis-6-[3-(2-fluoro-phenyl)-ureido]-3,4-dihydro-1H-isoquinoline-2-carboxylic acid 4-carboxy-cyclohexyl ester]
C[C@H]1C[C@@H](CC(=O)O)CC[C@H]1OC(=O)N1CCc2cc(NC(=O)Nc3ccccc3F)ccc2C1 (relative stereo) [Example 14, 6-[3-(2-fluoro-phenyl)-ureido]-3,4-dihydro-1H-isoquinoline-2-carboxylic acid c-4-carboxymethyl-c-2-methyl-r-1-cyclohexyl ester]
O=C(Nc1ccc2c(c1)CCN(C(=O)O[C@H]1CC[C@H](CC(=O)N3CCCC3C(=O)O)CC1)C2)Nc1ccccc1F (stereo partly drawn) [Example 38, trans-6-[3-(2-fluoro-phenyl)-ureido]-3,4-dihydro-1H-isoquinoline-2-carboxylic acid 4-[2-(2-carboxy-pyrrolidin-1-yl)-2-oxo-ethyl]-cyclohexyl ester]
O=C(O)C[C@@H]1CC[C@H](OC(=O)N2CCc3cc(NC(=O)Nc4ccccc4F)ccc3C2)C1 (relative stereo) [Example 6, cis-6-[3-(2-fluoro-phenyl)-ureido]-3,4-dihydro-1H-isoquinoline-2-carboxylic acid 3-carboxymethyl-cyclopentyl ester]
CC(NC(=O)C[C@H]1CC[C@H](OC(=O)N2CCc3cc(NC(=O)Nc4ccccc4F)ccc3C2)CC1)C(=O)O (stereo partly drawn) [Example 36, trans-6-[3-(2-fluoro-phenyl)-ureido]-3,4-dihydro-1H-isoquinoline-2-carboxylic acid 4-[(1-carboxy-ethylcarbamoyl)-methyl]-cyclohexyl ester]
O=C(Nc1ccc2c(c1)CCN(C(=O)O[C@H]1CC[C@H](Cc3cc(O)n[nH]3)CC1)C2)Nc1ccccc1F [Example 42, trans-6-[3-(2-fluoro-phenyl)-ureido]-3,4-dihydro-1H-isoquinoline-2-carboxylic acid 4-(5-hydroxy-2H-pyrazol-3-ylmethyl)-cyclohexyl ester]
